Reference: patent US20030083483A1, “Molecular interaction sites of vimentin RNA and methods of modulating the same” (priority 1999, published 2003)
Like-named read-outs stand apart in the source and are kept apart here.

Columns and labels:
[1] = target: 27-mer model RNA sequence of the 16S A-site; experiment: MASS mass spectrometry binding assay with 16S A-site 27-mer RNA; parameters: species or system prokaryotic
Procedure: The compounds are screened for binding affinity using MASS or conventional high-throughput functional screens. The best scoring compounds from docking a 256-member library against the 16S A-site ribosomal RNA structure are shown in the table 5 below. The MASS assay was performed with the 27-mer model RNA sequence of the 16S A-site whose NMR structure has been determined. The transcription/translation assay was based on expression of a luciferase plasmid.
A preferred first step of MASS screening involves mixing the RNA target (or targets) with a combinatorial library of ligands designed to bind to a specific site on the target molecule(s). Specific noncovalent complexes formed in solution between the target(s) and any library members are transferred into the gas phase and ionized by ESI. As described herein, from the measured mass difference between the complex and the free target, the identity of the binding ligand can be determined. The dissociation constant of the complex can be determined in two ways: if a ligand with a known binding affinity for the target is available, a relative Kd can be measured by using the known ligand as an internal control and measuring the abundance of the unknown complex to the abundance of the control, alternatively, if no internal control is available, Kd's can be determined by making a series of measurements at different ligand concentrations and deriving a Kd value from the “titration” curve.
In a direct determination of solution phase dissociation constants (Kd's) by mass spectrometry, ESI-MS measurements of a solution containing a fixed concentration of RNA at different concentrations of ligand were obtained. By measuring the ratio of bound:unbound RNA at varying ligand concentrations, the Kd was determined by 1/slope of the “titration curve”. The MS derived value of 110 nM is in good agreement with previously reported literature value of 200 nM.
All mass spectrometry experiments were performed using an Apex II 70e electrospray ionization Fourier transform ion cyclotron resonance mass spectrometer (Bruker Daltonics, Billerica) employing an actively shielded 7 tesla superconducting magnet. RNA solutions were prepared in 50 mM NH4OAc (pH 7), mixed 1:1 v:v with isopropanol to aid desolvation, and infused at a rate of […] using a syringe pump. Ions were formed in a modified electrospray source (Analytica, Branford) employing an off axis, grounded electrospray probe positioned ca. 1.5 cm from the metalized terminus of the glass desolvation capillary biased at 5000 V. A counter-current flow of dry […] gas heated to 225C was employed to assist in the desolvation process. Ions were accumulated in an external ion reservoir comprised of an RF-only hexapole, a skimmer cone, and an auxiliary electrode for 1000 ms prior to transfer into the trapped ion cell for mass analysis. Each spectrum was the result of the coaddition of 16 transients comprised of […] acquired over a 90,909 kHz bandwidth resulting in a 700 ms detection interval. All aspects of pulse sequence control, data acquisition, and post acquisition processing were performed using a Bruker Daltonics datastation running XMASS version 4.0 on a Silicon Graphics (San Jose, Calif.) R5000 computer.
Mass spectrometry experiments were performed in order to detect complex formation between a library containing five aminoglycosides (Sisomicin (Sis), Tobramycin (Tob), Bekanomycin (Bek), Paromomycin (PM), and Livodomycin (LV)) and two RNA targets simultaneously. Signals from the (M-5H+)^5− charge states of free 16S and 18S RNAs are detected at m/z 1801.515 and 1868.338, respectively. The mass spectrometric assay reproduces the known solution binding properties of aminoglycosides to the 16S A site model and an 18S A site model with a neutral mass linker. Consistent with the higher binding affinity of theses aminoglycosides for the 16S A-site relative to the 18S A-site, aminoglycoside complexes are observed only with the 16S rRNA target. […]

18S A site model = experiment: ESI-FTICR mass spectrometric complex detection with 18S A-site model RNA; assay type: binding, eukaryotic; details: mixture of five aminoglycosides, 16S and 18S targets simultaneously
Procedure: Paromomycin, lividomycin (MW=761.354 Da), sisomicin (MW=447.269 Da), tobramycin (MW=467.2591 Da), and bekanamycin (MW=483.254 Da) were obtained from Sigma (St. Louis, Mo.) and ICN (Costa Mesa, Calif.) and were dissolved to generate 10 mM stock solutions. 2′ methoxy analogs of RNA constructs representing the prokaryotic (16S) rRNA and eukaryotic (18S) rRNA A-site were synthesized in house and precipitated twice from 1 M ammonium acetate following deprotection with ammonia (pH 8.5). The mass-tagged constructs contained an 18-atom mass tag (C12H2509) attached to the 5′-terminus of the RNA oligomer through a phosphodiester linkage.
All mass spectrometry experiments were performed using an Apex II 70e electrospray ionization Fourier transform ion cyclotron resonance mass spectrometer (Bruker Daltonics, Billerica) employing an actively shielded 7 tesla superconducting magnet. […]
Mass spectrometry experiments were performed in order to detect complex formation between a library containing five aminoglycosides (Sisomicin (Sis), Tobramycin (Tob), Bekanomycin (Bek), Paromomycin (PM), and Livodomycin (LV)) and two RNA targets simultaneously. Signals from the (M-5H+)^5− charge states of free 16S and 18S RNAs are detected at m/z 1801.515 and 1868.338, respectively. […]

NC[C@@H]1O[C@H](O[C@H]2[C@@H](O)[C@H](O[C@@H]3[C@@H](O)[C@H](N)C[C@H](N)[C@H]3O[C@H]3O[C@H](CO)[C@@H](O)[C@H](O)[C@H]3N)O[C@@H]2CO)[C@H](N)[C@@H](O)[C@@H]1O [Paromomycin]
Kd ([1]; 16S A site 27mer, ESI-MS titration, read-out: KD measured by mass spectrometry): 110 nM
Kd ([1]; 27-mer model RNA of the 16S A-site, unit printed only in the Paromomycin cell and b169, read-out: MASS KD): 500 nM
complexes detected with the 16S A site 27mer RNA ([1]; ESI-FTICR, mixture of five aminoglycosides, 16S and 18S targets simultaneously): High affinity complexes
complexes with the 18S A site model (18S A site model): absence
